According to patent US12473304B2, “Heterocyclic PAD4 inhibitors” (BRISTOL-MYERS SQUIBB COMPANY, priority 2020, dated 2025):

Target: human PAD4 (hPAD4) (Homo sapiens (Human), UniProt Q9UM07)
Assay: RFMS Human PAD4 Functional Assay 1
Type: biochemical
Conditions: RFMS assay 1; 5 nM hPAD4, 250 μM BAEE substrate, 50 μM calcium, 37° C.
Procedure, shortened: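 Recombinant hPAD4 (5 nM) was preincubated with compound (top 50 μM, 0.5% DMSO) for 30 min at 37 °C, then reacted with 250 μM BAEE for 90 min at 37 °C in pH 7.5 HEPES buffer with 50 μM calcium and 5 μM TPEN. Product was derivatized with phenyl glyoxal and quantified by RapidFire MS.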

human PAD4 (hPAD4), sequence (Q9UM07 whole entry): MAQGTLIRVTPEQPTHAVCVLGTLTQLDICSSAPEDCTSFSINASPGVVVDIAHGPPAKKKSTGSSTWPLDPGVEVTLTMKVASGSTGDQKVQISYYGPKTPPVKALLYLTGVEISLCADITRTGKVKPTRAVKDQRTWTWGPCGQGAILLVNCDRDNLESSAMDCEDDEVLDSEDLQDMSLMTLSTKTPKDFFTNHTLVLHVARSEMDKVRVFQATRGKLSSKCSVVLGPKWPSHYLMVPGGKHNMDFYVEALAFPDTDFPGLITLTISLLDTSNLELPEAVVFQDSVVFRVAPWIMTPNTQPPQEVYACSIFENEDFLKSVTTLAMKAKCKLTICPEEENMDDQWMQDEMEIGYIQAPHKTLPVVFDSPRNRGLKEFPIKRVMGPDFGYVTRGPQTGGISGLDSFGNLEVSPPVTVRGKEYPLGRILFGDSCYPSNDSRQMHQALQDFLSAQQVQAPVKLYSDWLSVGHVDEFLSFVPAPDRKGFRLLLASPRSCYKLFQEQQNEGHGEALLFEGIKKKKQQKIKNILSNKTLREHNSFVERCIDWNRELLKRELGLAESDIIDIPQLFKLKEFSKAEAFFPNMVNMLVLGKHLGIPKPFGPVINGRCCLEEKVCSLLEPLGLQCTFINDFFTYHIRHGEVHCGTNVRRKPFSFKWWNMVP

Row | Compound | IC50
1 | COc1cc(C(=O)N2C[C@H](N)C[C@@H](F)C2)cn2nc(-c3cc4ccc(-c5ccc(NS(C)(=O)=O)cc5)cc4n3CC3CC3)c(C)c12 [Example 216, N-[4-(2-{6-[(3R,5R)-3-Amino-5-fluoropiperidine-1-carbonyl]-4-methoxy-3-methylpyrazolo[1,5-a]pyridin-2-yl}-1-(cyclopropylmethyl)-1H-indol-6-yl)phenyl]methanesulfonamide] | 270 nM
2 | COc1cc(C(=O)N2C[C@H](N)C[C@@H](F)C2)cn2nc(-c3cc4ccc(-c5ccc(C(=O)N(C)C)cc5)cc4n3CC3CC3)c(C)c12 [Example 217, 4-(2-{6-[(3R,5R)-3-Amino-5-fluoropiperidine-1-carbonyl]-4-methoxy-3-methylpyrazolo[1,5-a]pyridin-2-yl}-1-(cyclopropylmethyl)-1H-indol-6-yl)-N,N-dimethylbenzamide] | 260 nM
3 | COc1cc(C(=O)N2C[C@H](N)C[C@@H](F)C2)cn2nc(-c3cc4ccc(-c5ccc6[nH]ncc6c5)cc4n3CC3CC3)c(C)c12 [Example 218, (3R,5R)-1-{2-[1-(Cyclopropylmethyl)-6-(1H-indazol-5-yl)-1H-indol-2-yl]-4-methoxy-3-methylpyrazolo[1,5-a]pyridine-6-carbonyl}-5-fluoropiperidin-3-amine] | 550 nM
4 | COc1cc(C(=O)N2C[C@H](N)C[C@@H](F)C2)cn2nc(-c3cc4ccc(-c5ccc6c(cnn6C)c5)cc4n3CC3CC3)c(C)c12 [Example 219, (3R,5R)-1-{2-[1-(Cyclopropylmethyl)-6-(1-methyl-1H-indazol-5-yl)-1H-indol-2-yl]-4-methoxy-3-methylpyrazolo[1,5-a]pyridine-6-carbonyl}-5-fluoropiperidin-3-amine] | 460 nM
5 | COc1cc(C(=O)N2C[C@H](N)C[C@@H](F)C2)cn2nc(-c3cc4ccc(-c5cccc(-c6nn[nH]n6)c5)cc4n3CC3CC3)c(C)c12 [Example 220, (3R,5R)-1-{2-[1-(Cyclopropylmethyl)-6-[3-(2H-1,2,3,4-tetrazol-5-yl)phenyl]-1H-indol-2-yl]-4-methoxy-3-methylpyrazolo[1,5-a]pyridine-6-carbonyl}-5-fluoropiperidin-3-amine] | 4340 nM
6 | COc1cc(C(=O)N2C[C@H](N)C[C@@H](F)C2)cn2nc(-c3cc4ccc(-c5ccc(CNC(C)=O)cc5)cc4n3CC3CC3)c(C)c12 [Example 221, N-{[4-(2-{6-[(3R,5R)-3-Amino-5-fluoropiperidine-1-carbonyl]-4-methoxy-3-methylpyrazolo[1,5-a]pyridin-2-yl}-1-(cyclopropylmethyl)-1H-indol-6-yl)phenyl]methyl}acetamide] | 510 nM
7 | COc1cc(C(=O)N2C[C@H](N)C[C@@H](F)C2)cn2nc(-c3cc4ccc(-c5cccc6[nH]ncc56)cc4n3CC3CC3)c(C)c12 [Example 222, (3R,5R)-1-{2-[1-(Cyclopropylmethyl)-6-(1H-indazol-4-yl)-1H-indol-2-yl]-4-methoxy-3-methylpyrazolo[1,5-a]pyridine-6-carbonyl}-5-fluoropiperidin-3-amine] | 1010 nM
8 | COc1cc(C(=O)N2C[C@H](N)C[C@@H](F)C2)cn2nc(-c3cc4ccc(-c5ccccc5C(N)=O)cc4n3CC3CC3)c(C)c12 [Example 223, 2-(2-{6-[(3R,5R)-3-Amino-5-fluoropiperidine-1-carbonyl]-4-methoxy-3-methylpyrazolo[1,5-a]pyridin-2-yl}-1-(cyclopropylmethyl)-1H-indol-6-yl)benzamide] | 130 nM
9 | COc1cc(C(=O)N2C[C@H](N)C[C@@H](F)C2)cn2nc(-c3cc4ccc(-c5ccc(CNS(C)(=O)=O)cc5)cc4n3CC3CC3)c(C)c12 [Example 224, N-{[4-(2-{6-[(3R,5R)-3-Amino-5-fluoropiperidine-1-carbonyl]-4-methoxy-3-methylpyrazolo[1,5-a]pyridin-2-yl}-1-(cyclopropylmethyl)-1H-indol-6-yl)phenyl]methyl}methanesulfonamide] | 1070 nM
